From ChEMBL document CHEMBL4665709, “Rational Avoidance of Protease Cleavage Sites and Symmetrical End-Tagging Significantly Enhances the Stability and Therapeutic Potential of Antimicrobial Peptides” (J Med Chem, 2020)
Values after ≈ are worked out from the molar mass of the structure shown. Active and inactive are the calls of the source. No cut-off for these calls is given here.

What was measured:
[1] = Therapeutic index, ratio of MHC for human RBC to geometric mean of peptide MIC for Streptococcus agalactiae H92; type: toxicity; conditions: human red blood cells (RBC), read-out: TI
[2] = Therapeutic index, ratio of MHC for human RBC to geometric mean of peptide MIC for Staphylococcus epidermidis ATCC 12228; type: toxicity; conditions: human red blood cells (RBC), read-out: TI
[3] = Therapeutic index, ratio of MHC for human RBC to geometric mean of peptide MIC for methicillin-resistant Staphylococcus aureus 43300; type: toxicity; conditions: human red blood cells (RBC), read-out: TI
[4] = Therapeutic index, ratio of MHC for human RBC to geometric mean of peptide MIC for Enterococcus faecalis ATCC 29212; type: toxicity; conditions: human red blood cells (RBC), read-out: TI
[5] = Therapeutic index, ratio of MHC for human RBC to geometric mean of peptide MIC for Staphylococcus aureus ATCC 29213; type: toxicity; conditions: human red blood cells (RBC), read-out: TI
[6] = Therapeutic index, ratio of MHC for human RBC to geometric mean of peptide MIC for Staphylococcus aureus 11011; type: toxicity; conditions: human red blood cells (RBC), read-out: TI
[7] = Therapeutic index, ratio of MHC for human RBC to geometric mean of peptide MIC for Salmonella pullorum 7913; type: toxicity; conditions: human red blood cells (RBC), read-out: TI
[8] = Therapeutic index, ratio of MHC for human RBC to geometric mean of peptide MIC for Salmonella typhimurium 7731; type: toxicity; conditions: human red blood cells (RBC), read-out: TI
[9] = Therapeutic index, ratio of MHC for human RBC to geometric mean of peptide MIC for Salmonella choleraesuis 503; type: toxicity; conditions: human red blood cells (RBC), read-out: TI
[10] = Therapeutic index, ratio of MHC for human RBC to geometric mean of peptide MIC for Escherichia coli UB1005; type: toxicity; conditions: human red blood cells (RBC), read-out: TI
[11] = Therapeutic index, ratio of MHC for human RBC to geometric mean of peptide MIC for Salmonella typhimurium 14028; type: toxicity; conditions: human red blood cells (RBC), read-out: TI
[12] = Therapeutic index, ratio of MHC for human RBC to geometric mean of peptide MIC for Escherichia coli ATCC 25922; type: toxicity; conditions: human red blood cells (RBC), read-out: TI
[13] = Antibacterial activity against Salmonella pullorum 7913 after 18 to 24 hrs by CLSI-based broth microdilution method; type: functional, Salmonella enterica subsp. enterica serovar Pullorum; conditions: Salmonella enterica, time hrs 18-24
Salmonella enterica = assay: Antibacterial activity against Salmonella choleraesuis 503 after 18 to 24 hrs by CLSI-based broth microdilution method; type: functional; conditions: time hrs 18-24
Enterococcus faecalis = assay: Antibacterial activity against Enterococcus faecalis ATCC 29212 after 18 to 24 hrs by CLSI-based broth microdilution method; type: functional; conditions: time hrs 18-24
Streptococcus agalactiae = assay: Antibacterial activity against Streptococcus agalactiae H92 after 18 to 24 hrs by CLSI-based broth microdilution method; type: functional; conditions: time hrs 18-24
Erythrocyte = assay: Hemolytic activity in human RBC assessed as hemolysis; type: ADME, cell-based
[14] = Hemolytic activity in human RBC assessed as hemolysis at 1 to 128 uM relative to control; type: ADME, cell-based, Erythrocyte; conditions: human red blood cells (RBC), dose 1-128 µM, read-out: Activity
[15] = Hemolytic activity in human RBC assessed as hemolysis at 1 uM relative to control; type: ADME, cell-based, Erythrocyte; conditions: human red blood cells (RBC), read-out: Activity
RAW264.7 = assay: Cytotoxicity against mouse RAW264.7 cells assessed as reduction in cell viability lower concentration by MTT assay; type: cell-based
HEK-293T = assay: Cytotoxicity against HEK-293T cells assessed as reduction in cell viability at lower concentration by MTT assay; type: cell-based; conditions: human
[16] = Stability of compound at 100 degreeC after 30 to 90 mins; type: physicochemical; conditions: time 30-90 min
Escherichia coli [17] = assay: Antibacterial activity against Escherichia coli ATCC 25922 measured after 18 to 24 hrs in presence of trypsin by CLSI-based broth microdilution method; type: functional, organism-based; conditions: time hrs 18-24
Escherichia coli [18] = assay: Antibacterial activity against Escherichia coli ATCC 25922 measured after 18 to 24 hrs in presence of chymotrypsin by CLSI-based broth microdilution method; type: functional, organism-based; conditions: time hrs 18-24
Escherichia coli [19] = assay: Antibacterial activity against Escherichia coli ATCC 25922 measured after 18 to 24 hrs in presence of pepsin by CLSI-based broth microdilution method; type: functional, organism-based; conditions: time hrs 18-24
Escherichia coli [20] = assay: Antibacterial activity against Escherichia coli ATCC 25922 measured after 18 to 24 hrs in presence of proteinase K by CLSI-based broth microdilution method; type: functional, organism-based; conditions: time hrs 18-24
Staphylococcus aureus [21] = assay: Antibacterial activity against Staphylococcus aureus 29213 with 0.0625-2 mg/mL trypsin for 1 hr followed by test compound addition measured after 4 to 8 hrs by CLSI-based broth microdilution method; type: functional, organism-based; conditions: time hrs 4-8
Staphylococcus aureus [22] = assay: Antibacterial activity against Staphylococcus aureus 29213 with 0.0625-2 mg/mL chymotrypsin for 1 hr followed by test compound addition measured after 4 to 8 hrs by CLSI-based broth microdilution method; type: functional, organism-based; conditions: time hrs 4-8
Staphylococcus aureus [23] = assay: Antibacterial activity against Staphylococcus aureus 29213 with 0.0625-2 mg/mL pepsin for 1 hr followed by test compound addition measured after 4 to 8 hrs by CLSI-based broth microdilution method; type: functional, organism-based; conditions: time hrs 4-8
Staphylococcus aureus [24] = assay: Antibacterial activity against Staphylococcus aureus 29213 with 0.0625-2 mg/mL proteinase K for 1 hr followed by test compound addition measured after 4 to 8 hrs by CLSI-based broth microdilution method; type: functional, organism-based; conditions: time hrs 4-8
Trypsin [25] = target: T1, Trypsin (Homo sapiens, UniProt P07477+P07478+P35030); assay: Stability of compound assessed as trypsin (unknown origin)-mediated drug degradation after 1 hr by RP-HPLC analysis; type: ADME, protein assay
[26] = Stability of compound assessed as chymotrypsin (unknown origin)-mediated drug degradation after 1 hr by RP-HPLC analysis; type: ADME; conditions: human
[27] = Stability of compound assessed as pepsin (unknown origin)-mediated drug degradation after 1 hr by RP-HPLC analysis; type: ADME; conditions: human
[28] = Stability of compound assessed as proteinase K (unknown origin)-mediated drug degradation after 1 hr by RP-HPLC analysis; type: ADME; conditions: human
Trypsin [29] = target: T1, Trypsin; assay: Stability of compound assessed as trypsin (unknown origin)-mediated drug degradation after 1 hr by SDS-PAGE analysis; type: ADME, protein assay
[30] = Stability of compound assessed as chymotrypsin (unknown origin)-mediated drug degradation after 1 hr by SDS-PAGE analysis; type: ADME; conditions: human
[31] = Stability of compound assessed as pepsin (unknown origin)-mediated drug degradation after 1 hr by SDS-PAGE analysis; type: ADME; conditions: human
[32] = Stability of compound assessed as proteinase K (unknown origin)-mediated drug degradation after 1 hr by SDS-PAGE analysis; type: ADME; conditions: human
Cell membrane = assay: Induction of outer membrane permeabilization in Escherichia coli ATCC 25922 after 30 mins by NPN-dye based assay

CC[C@H](C)[C@H](NC(=O)CN)C(=O)NCC(=O)N[C@@H](C)C(=O)N[C@H](C(=O)N[C@@H](CC(C)C)C(=O)N[C@@H](CCCCN)C(=O)N[C@H](C(=O)N[C@@H](CC(C)C)C(=O)N[C@H](C(=O)N[C@H](C(=O)NCC(=O)N[C@@H](CC(C)C)C(=O)N1CCC[C@H]1C(=O)N[C@@H](C)C(=O)N[C@@H](CC(C)C)C(=O)N[C@H](C(=O)N[C@@H](CO)C(=O)N[C@@H](Cc1c[nH]c2ccccc12)C(=O)N[C@H](C(=O)N[C@@H](CCCCN)C(=O)N[C@@H](CCCNC(=N)N)C(=O)N[C@@H](CCCCN)C(=O)N[C@@H](CCCNC(=N)N)C(=O)N[C@@H](CCC(N)=O)C(=O)N[C@@H](CCC(N)=O)C(N)=O)[C@@H](C)CC)[C@@H](C)CC)[C@@H](C)O)[C@@H](C)O)C(C)C)C(C)C [MELITTIN]
selectivity ratio [1]: 0.56 | selectivity ratio [2]: 0.56 | selectivity ratio [3]: 0.56 | selectivity ratio [4]: 0.56 | selectivity ratio [5]: 0.56 | selectivity ratio [6]: 0.56 | selectivity ratio [7]: 0.4 | selectivity ratio [8]: 0.4 | selectivity ratio [9]: 0.4 | selectivity ratio [10]: 0.4 | selectivity ratio [11]: 0.4 | selectivity ratio [12]: 0.4 | MIC [13]: 4 µM (≈ 11.4 µg/mL) | MIC (Salmonella enterica): 4 µM (≈ 11.4 µg/mL) | MIC (Enterococcus faecalis): 2 µM (≈ 5.69 µg/mL) | MIC (Streptococcus agalactiae): 1 µM (≈ 2.85 µg/mL) | MHC (Erythrocyte): 1 µM | hemolysis at up to 128 µM [14]: < 5% | hemolysis at 1 µM [15]: 10.1% | Activity (RAW264.7): Toxic | Activity (HEK-293T): Toxic | Stabilty [16]: Stable | Activity (Escherichia coli [17]): inactive | Activity (Escherichia coli [18]): inactive | Activity (Escherichia coli [19]): inactive | Activity (Escherichia coli [20]): inactive | Activity (Staphylococcus aureus [21]): inactive | Activity (Staphylococcus aureus [22]): inactive | Activity (Staphylococcus aureus [23]): inactive | Activity (Staphylococcus aureus [24]): inactive | Stabilty (Trypsin [25]): Unstable | Stabilty [26]: Unstable | Stabilty [27]: Unstable | Stabilty [28]: Unstable | Stabilty (Trypsin [29]): Unstable | Stabilty [30]: Unstable | Stabilty [31]: Unstable | Stabilty [32]: Unstable | Activity (Cell membrane): Dose-dependent effect
